Results on one compound are retold here after PMC2375285, “Inhibition of all-TRANS-retinoic acid metabolism by R116010 induces antitumour activity” (British Journal of Cancer, 2002).

Broadly, the IC50 is the concentration that gives 50% inhibition.

One data set concerns the target T1, CYP2A1 (Rattus norvegicus, UniProt P11711).
T1 construct: hydroxylation of testosterone (CYP2C11, CYP2A1, CYP3A, CYP2B1/2) in rat liver microsomes; from tissue; host or cells: rat liver, microsomes
T1 sequence (P11711 1-492): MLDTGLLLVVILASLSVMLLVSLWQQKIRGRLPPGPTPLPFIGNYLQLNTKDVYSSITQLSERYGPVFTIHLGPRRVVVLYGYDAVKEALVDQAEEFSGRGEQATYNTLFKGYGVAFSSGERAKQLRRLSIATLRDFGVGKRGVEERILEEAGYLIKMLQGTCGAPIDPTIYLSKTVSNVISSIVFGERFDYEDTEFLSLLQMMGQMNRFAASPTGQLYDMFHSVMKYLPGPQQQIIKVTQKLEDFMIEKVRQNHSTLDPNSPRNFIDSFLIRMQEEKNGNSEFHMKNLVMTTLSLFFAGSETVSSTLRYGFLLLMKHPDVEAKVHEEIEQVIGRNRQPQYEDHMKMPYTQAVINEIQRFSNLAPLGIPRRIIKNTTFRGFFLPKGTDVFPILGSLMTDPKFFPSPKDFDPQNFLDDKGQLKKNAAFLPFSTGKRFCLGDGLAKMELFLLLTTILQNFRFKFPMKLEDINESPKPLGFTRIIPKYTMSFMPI
In words: Testosterone 7α-hydroxylase in rat liver microsomes. In kind it is biochemical. (Liver microsomes are vesicles of endoplasmic reticulum, rich in cytochrome P450 enzymes.)

The test system of another data set is CYP2B1/2. Nature of the data set: Testosterone 16β-hydroxylase in rat liver microsomes. In kind it is biochemical. Particulars: probe testosterone (16β-hydroxylation).
Another data set addresses T2, 17,20-lyase (CYP17) (Rattus norvegicus, UniProt P11715).
T2 construct: 17,20-lyase (CYP17) in rat testicular S10 fractions; from tissue; host or cells: rat testis, S10 fraction
T2 sequence (P11715 1-507): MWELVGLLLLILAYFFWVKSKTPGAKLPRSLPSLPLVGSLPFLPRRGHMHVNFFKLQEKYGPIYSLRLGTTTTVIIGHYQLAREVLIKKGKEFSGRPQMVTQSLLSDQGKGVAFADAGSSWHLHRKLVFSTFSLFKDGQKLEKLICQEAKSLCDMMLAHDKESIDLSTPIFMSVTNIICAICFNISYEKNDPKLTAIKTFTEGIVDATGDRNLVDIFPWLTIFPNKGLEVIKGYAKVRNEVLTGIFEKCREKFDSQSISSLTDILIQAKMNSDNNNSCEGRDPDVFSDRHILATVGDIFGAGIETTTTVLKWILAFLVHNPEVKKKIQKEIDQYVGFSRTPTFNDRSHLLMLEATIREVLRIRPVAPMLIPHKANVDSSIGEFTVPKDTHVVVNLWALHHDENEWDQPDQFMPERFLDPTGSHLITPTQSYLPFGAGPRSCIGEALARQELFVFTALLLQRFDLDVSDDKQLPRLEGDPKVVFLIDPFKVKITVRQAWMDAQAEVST
In words: 17,20-lyase in rat testicular S10 fraction. It is filed as biochemical.

Data set [1] concerns RA metabolism in T47D cells. Nature of the data set: Reverse-phase HPLC analysis of radiolabelled RA metabolites in T47D cells. In kind it is cell-based, human. Particulars: 1 μM R116010; T47D cells pretreated with 1 μM RA. As to the method:
The T47D cell suspension was prepared as described above and 450 μl was incubated with 0.1 μM [11, 12-^3H(N)]RA for 90 min. After centrifugation for 10 min at 780 g, the supernatant was analyzed for the presence of RA metabolites. Reverse-phase HPLC analysis was carried out as described previously ([Van heusden et al, 1998]).

For data set [2], the system named is androgen-independent rat prostatic Dunning R3327/PIF-1 carcinoma cells. Set-up: method as in Van Ginckel et al, 1999. Particulars: in vivo; ref Van Ginckel et al, 1999; cited from earlier work.
The subject of another data set is Lewis lung (3LL) tumours. Set-up: method as in Smets et al, manuscript in preparation. Particulars: in vivo; ref Smets et al, manuscript in preparation; cited from earlier work.
Another data set addresses T3, CYP2C11 (Rattus norvegicus, UniProt P08683).
T3 construct: hydroxylation of testosterone (CYP2C11, CYP2A1, CYP3A, CYP2B1/2) in rat liver microsomes; from tissue; host or cells: rat liver, microsomes
T3 sequence (P08683 1-500): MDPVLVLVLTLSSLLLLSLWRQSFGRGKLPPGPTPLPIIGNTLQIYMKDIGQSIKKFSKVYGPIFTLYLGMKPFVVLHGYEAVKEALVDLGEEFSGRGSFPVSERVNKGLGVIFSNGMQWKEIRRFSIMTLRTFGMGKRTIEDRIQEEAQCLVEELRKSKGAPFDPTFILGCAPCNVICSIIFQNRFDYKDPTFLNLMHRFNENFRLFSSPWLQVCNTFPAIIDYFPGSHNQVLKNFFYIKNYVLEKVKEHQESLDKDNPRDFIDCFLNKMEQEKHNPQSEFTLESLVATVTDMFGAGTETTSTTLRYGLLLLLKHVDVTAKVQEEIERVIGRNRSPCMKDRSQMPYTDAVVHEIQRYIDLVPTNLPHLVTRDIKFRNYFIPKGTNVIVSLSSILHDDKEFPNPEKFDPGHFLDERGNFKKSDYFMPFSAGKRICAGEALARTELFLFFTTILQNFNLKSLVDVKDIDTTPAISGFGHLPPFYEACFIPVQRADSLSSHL
Nature of the data set: Testosterone 2α-hydroxylase in rat liver microsomes. In kind it is biochemical.

A short description of data set [3]: Blood hormone levels in rats treated with R116010. It is filed as in vivo. Conditions: 10 mg kg^−1 R116010.
A further data set deals with T4, CYP26A1 (Homo sapiens, UniProt O43174).
T4 construct: microsomes of T47D human breast cancer cells that were pretreated for 16 h with 1 μM RA to induce RA metabolism; endogenous in cells; host or cells: T47D human breast cancer cells, pretreated with 1 μM RA for 16 h; microsomal fraction
T4 sequence (O43174 1-497): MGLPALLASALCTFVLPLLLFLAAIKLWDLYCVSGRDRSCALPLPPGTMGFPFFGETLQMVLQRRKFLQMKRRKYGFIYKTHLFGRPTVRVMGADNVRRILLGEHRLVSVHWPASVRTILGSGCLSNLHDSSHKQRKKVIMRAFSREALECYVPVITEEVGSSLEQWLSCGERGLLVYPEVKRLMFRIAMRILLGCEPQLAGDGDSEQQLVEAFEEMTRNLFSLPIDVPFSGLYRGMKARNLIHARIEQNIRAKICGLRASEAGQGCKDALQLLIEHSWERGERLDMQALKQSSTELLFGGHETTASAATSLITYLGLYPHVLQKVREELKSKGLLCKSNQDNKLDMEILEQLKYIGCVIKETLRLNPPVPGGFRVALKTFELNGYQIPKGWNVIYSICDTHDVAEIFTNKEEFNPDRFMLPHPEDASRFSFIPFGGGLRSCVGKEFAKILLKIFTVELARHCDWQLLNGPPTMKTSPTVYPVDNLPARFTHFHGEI
Nature of the data set: RA 4-hydroxylase in T47D human breast cancer microsomes. In kind it is biochemical.

Experimental for 17,20-lyase (CYP17): (§1) Metabolism of RA by CYP26A1 was measured in microsomes of T47D human breast cancer cells that were pretreated for 16 h with 1 μM RA to induce RA metabolism. Microsomes were prepared exactly as described by [Han and Choi (1996)], and RA metabolism was measured as described by [Van Wauwe et al (1994)]. The conversion of androstenedione to estrone by aromatase (CYP19) in human placental microsomes, the conversion of 17-hydroxy-20-dihydroprogesterone to testosterone by 17,20-lyase (CYP17) in rat testicular S10 fractions, and the 2α-, 7α-, 6β-, and 16β-hydroxylation of testosterone (CYP2C11, CYP2A1, CYP3A, CYP2B1/2) in rat liver microsomes were carried out as described ([Vanden Bossche et al, 1990]).
Experimental for CYP26A1: as §1
Experimental for CYP2A1: (§2) The conversion of androstenedione to estrone by aromatase (CYP19) in human placental microsomes, the conversion of 17-hydroxy-20-dihydroprogesterone to testosterone by 17,20-lyase (CYP17) in rat testicular S10 fractions, and the 2α-, 7α-, 6β-, and 16β-hydroxylation of testosterone (CYP2C11, CYP2A1, CYP3A, CYP2B1/2) in rat liver microsomes were carried out as described ([Vanden Bossche et al, 1990]).
Experimental for CYP2B1/2: as §2
Experimental for CYP2C11: as §2

Turning to `C[C@@H]([C@H](c1ccc(Nc2nc3ccccc3s2)cc1)n1ccnc1)N(C)C` [R116010, [S-(R*,R*)]-N-[4-[2-(dimethylamino)-1-(1H-imidazole-1-yl)propyl]-phenyl]-2-benzothiazolamine], the half-maximal inhibitory concentration (IC50) at CYP2A1 (Rat liver microsomes) is greater than 10 µM; with CYP2B1/2 (Rat liver microsomes), greater than 10 µM; at 17,20-lyase (CYP17), 0.25 µM; against CYP2C11 (Rat liver microsomes) it was greater than 10 µM; against CYP26A1, 0.004 µM. Besides, the inhibition at 10 μM is 12% on CYP2A1 (probe testosterone (7α-hydroxylation), 10 μM R116010, rat liver microsomes, read-out: percentage of inhibition, Testosterone 7α-hydroxylase (CYP2A1)); 21% in the data set with CYP2B1/2 (10 μM R116010, rat liver microsomes, read-out: percentage of inhibition, Testosterone 16β-hydroxylase (CYP2B1/2)); 28% at CYP2C11 (probe testosterone (2α-hydroxylation), 10 μM R116010, rat liver microsomes, read-out: percentage of inhibition, Testosterone 2α-hydroxylase (CYP2C11)). In addition, the “inhibition of RA metabolism (HPLC)” value in data set [1] is “completely inhibited”. Further, in data set [2], the “growth of orthotopically implanted Dunning R3327/PIF-1 carcinoma cells” value is recorded as “inhibit the growth”. Also, in the data set on Lewis lung (3LL) tumours, the “growth of subcutaneous mouse Lewis lung (3LL) tumours” value is reported as “inhibit the growth”. In addition, in data set [3], the “change in blood hormone levels” value was “no change”.
